# From patent publication US9345244B2, “Plant growth regulating compounds” (Syngenta Participations AG, priority 2011, dated 2016)
# Tested on: Wheat (Triticum aestivum) seeds of the variety Arina
# Assay: Wheat assay (plant area and root curliness)
# Assay type: in vivo
# Settings: wheat var. Arina seeds in mini-pouches with 5 mL compound solution; twelve days after sowing/application
# Method: Two bioassays were developed in order to assay the activity of the compounds of the present invention. In the first assay, the activity of the compound was quantified in beans based on its effect on the elongation of the petiole of the second leaf. In the second assay, the compound's effect on the root growth of wheat was determined.
# The test compounds were dissolved in small volumes of dimethyl sulfoxide and diluted to the appropriate concentration with water. Wheat (Triticum aestivum) seeds of the variety Arina were sown in mini-pouches (10.5×9.0 cm) containing 5 mL of the appropriate compound solution. The mini pouches were stored at 17° C. for three days to enable the seeds to germinate. Plants were then stored at 5° C. Twelve days after sowing/application, plants were removed from the mini-pouches and scanned. The effect of the compounds was quantified by determining plant (root and shoot) area and curliness of the roots (curliness is an indicator of brassinosteroid-type activity).
row,SMILES,curliness of the roots (indicator of brassinosteroid-type activity)
1,"COC(=O)CCC(=O)Nc1ccc(C#N)cn1 [Compound A1, methyl 4-[(5-cyano-2-pyridyl)amino]-4-oxo-butanoate]",curly root phenotype
2,"N#Cc1ccc(NC(=O)CCC(=O)O)nc1 [Compound A2, 4-[(5-cyano-2-pyridyl)amino]-4-oxo-butanoic acid]",curly root phenotype
3,"O=C(O)CCC(=O)Nc1ccc(C(F)(F)F)cn1 [Compound A19, 4-oxo-4-[[5-(trifluoromethyl)-2-pyridyl]amino]butanoic acid]",curly root phenotype
4,"CCOC(=O)CCC(=O)Nc1ccc(C#N)cn1 [Compound A22, Ethyl 4-[(5-cyano-2-pyridyl)amino]-4-oxo-butanoate]",curly root phenotype
5,"CCOc1cc(NC(=O)CCC(=O)OC)ncc1Cl [Compound A31, Methyl 4-[(5-chloro-4-ethoxy-2-pyridyl)amino]-4-oxo-butanoate]",curly root phenotype
6,"CCOc1cc(NC(=O)CCC(=O)O)ncc1Cl [Compound A32, 4-[(5-chloro-4-ethoxy-2-pyridyl)amino]-4-oxo-butanoic acid]",curly root phenotype
7,"CCOc1cc(NC(=O)CCC(=O)OC)ncc1Br [Compound A38, Methyl 4-[(5-bromo-4-ethoxy-2-pyridyl)amino]-4-oxo-butanoate]",curly root phenotype
8,"CCOc1cc(NC(=O)CCC(=O)O)ncc1Br [Compound A39, 4-[(5-bromo-4-ethoxy-2-pyridyl)amino]-4-oxo-butanoic acid]",curly root phenotype

# Tested on: not given
# Assay: not given
# Settings: not given
row,melting point [°C],SMILES
1,161 to 164,"COC(=O)CCC(=O)Nc1ccc(C#N)cn1 [Compound A1, methyl 4-[(5-cyano-2-pyridyl)amino]-4-oxo-butanoate]"
2,220 to 221,"N#Cc1ccc(NC(=O)CCC(=O)O)nc1 [Compound A2, 4-[(5-cyano-2-pyridyl)amino]-4-oxo-butanoic acid]"
3,215 to 218,"N#Cc1cc(I)cnc1NC(=O)CCC(=O)O [Compound A4, 4-[(3-cyano-5-iodo-2-pyridyl)amino]-4-oxo-butanoic acid]"
4,246 to 248,"COC(=O)CCC(=O)Nc1ccc(-c2nnn[nH]2)cn1 [Compound A65, Methyl 4-oxo-4-[[5-(1H-tetrazol-5-yl)-2-pyridyl]amino]butanoate]"
5,129,"COC(=O)C(C)(C)CC(=O)Nc1ccc(C#N)cn1 [Compound B1, Methyl 4-[(5-cyano-2-pyridyl)amino]-2,2-dimethyl-4-oxo-butanoate]"
